Where two headings read alike, the source gives them in different places.
Key:
EGFR = system: EGFR; set-up: method as in PMID 35664590, PMID 25019480; settings: cited from earlier work
mushroom tyrosinase [1] = settings: read-out: IC50 (previously reported tyrosinase inhibitor); cited from earlier work
mushroom tyrosinase [2] = assay: Mushroom tyrosinase activity assay (L-DOPA to dopachrome); type: biochemical; settings: L-DOPA substrate, 37 °C, pH 6.8, mean ± SEM, n = 3
Experimental: Enzymatic conversion of L-DOPA into dopachrome by mushroom tyrosinase (Sigma Aldrich, St. Louis, MO) was detected using spectrophotometric evaluation. The mushroom tyrosinase activity assay was performed according to a previous report. In this study, the enzyme assay was conducted at 37 °C, which is in the optimal temperature range of tyrosinase, as per previous studies[20]^,[21]. The enzyme, substrate, and inhibitor(s) were dissolved in potassium phosphate buffer at a pH of 6.8, which is in the optimal pH range of tyrosinase. Note that, the solvent for preparing the stock solution of inhibitors was dimethyl sulphoxide. […] Then, the substrate (10 μL of 50 mM of L-DOPA) was introduced to the samples, followed by incubation at 37 °C for 15 min in darkness. The absorbance was later measured at 450 nm. The experiment was conducted in triplicate. IC50 values were determined through dose–response curve analysis using GraphPad Prism 10.2.2 software (La Jolla, CA).
Data are presented as the mean ± standard error of the mean (SEM) from three independent experiments (n = 3). Statistical comparisons between two groups were conducted using the t-test, with a p value of <0.05 considered to be statistically significant.

## Cc1ccc(NC2=C(Cl)C(=O)c3ccccc3C2=O)cc1 [compound 3]
EGFR
  EGFR inhibitory potency relative to erlotinib: fourfold higher potency than erlotinib

## O=c1c(O)c(-c2ccc(O)cc2O)oc2cc(O)cc(O)c12 [morin]
Mushroom tyrosinase [1]
  IC50: 2320 µM

## O=C1C=C(Nc2ccccc2)C(=O)c2ccccc21 [compound 1]
Mushroom tyrosinase [2]
  IC50: 151 ± 4.39 µM

## O=C1C(Cl)=C(Nc2ccc(Br)cc2)C(=O)c2ccccc21 [compound 5]
Mushroom tyrosinase [2]
  IC50: 138 ± 6.07 µM

## CC1(C)C=Cc2c(O)ccc(C3=Cc4ccc(O)cc4OC3)c2O1 [glabrene]
Mushroom tyrosinase [1]
  IC50: 7600 µM

## C[C@@H]1[C@H](O)[C@@H](C)/C=C/C=C/C=C/C=C/C=C/C=C/C=C/[C@H](O[C@@H]2O[C@H](C)[C@@H](O)[C@H](N)[C@@H]2O)C[C@@H]2O[C@](O)(C[C@@H](O)C[C@@H](O)[C@H](O)CC[C@@H](O)C[C@@H](O)CC(=O)O[C@H]1C)C[C@H](O)[C@H]2C(=O)O [amphotericin B]
Mushroom tyrosinase [1]
  IC50: 263 ± 11.8 µM

## CC(=O)c1cccc(NC2=C(Cl)C(=O)c3ccccc3C2=O)c1 [compound 10]
Mushroom tyrosinase [2]
  IC50: 112 ± 9.18 µM

— article PMC11141316, “Anilino-1,4-naphthoquinones as potent mushroom tyrosinase inhibitors: in vitro and in silico studies” (Journal of Enzyme Inhibition and Medicinal Chemistry, 2024)
